Patent US7705016B2, “Regulation of food intake by modulation of long-chain fatty acyl-CoA levels in the hypothalamus” (Albert Einstein College of Medicine of Yeshiva University, priority 2003, dated 2010)

Experiments:
KATP = assay: IV lipid infusion with ICV glybenclamide or hepatic vagotomy, pancreatic clamp (Example 4); type: in vivo, rat; conditions: near basal insulin (~27 μU/ml), groups S+ICVG, IL+ICVC
Protocol: Hepatic “Autoregulation” in Response to Lipid Infusion Requires Central Stimulation of K-channels (KATP) and Liver Vagal Innervation. […] Since the administration of the LCFA oleic acid in the third cerebral ventricle (ICV) inhibits GP via stimulation of KATP, here we test the hypotheses that: 1) the central activation of KATP by LCFAs restrains GP during lipid infusions, and 2) that this effect requires hepatic vagal input. To this end, 5 h fasted S-D rats were randomized to receive: IV Intralipid+heparin (IL) (increased LCFA levels by ˜3 fold) or saline (S) in combination with ICV Glybenclamide (G) [inhibitor of KATP] or vehicle (C) for 6 h. All rats also received IV infusions of [3-^3H]-glucose for the last 4 h and [U-^14C]-lactate for the last 10 min of the ICV infusion and a pancreatic clamp during the last 2 h of each study. During the clamp period, in the presence of near basal insulin levels (˜27 μU/ml), GP (˜6 mg/kg.min) was unchanged in S+ICVC, S+ICVG or IL+ICVC. […] To examine whether the central effects of LCFA on GP are mediated by vagal stimulation, we next repeated the lipid infusion studies in rats with selective hepatic vagotomy (HV). During the pancreatic clamp period, GP (˜6 mg/kg/min) was similar in S-treated HV and S or IL treated sham-operated rats. Importantly, IL increased GP to 9.7±0.5 (P<0.001) in HV, recapitulating the effect ICVG. […]

hypothalamic CPT1 [1] = target: T1, hypothalamic CPT1 (Rattus norvegicus, UniProt P32198); assay: ICV CPTi with or without glybenclamide or liver-selective vagotomy, pancreatic/insulin clamp (Example 4); type: in vivo; set-up: from tissue; host or cells: hypothalamus of living S-D rats; conditions: ICV GLY in CON-infused rats (CON-GLY); not shown
T1 sequence (P32198 1-773): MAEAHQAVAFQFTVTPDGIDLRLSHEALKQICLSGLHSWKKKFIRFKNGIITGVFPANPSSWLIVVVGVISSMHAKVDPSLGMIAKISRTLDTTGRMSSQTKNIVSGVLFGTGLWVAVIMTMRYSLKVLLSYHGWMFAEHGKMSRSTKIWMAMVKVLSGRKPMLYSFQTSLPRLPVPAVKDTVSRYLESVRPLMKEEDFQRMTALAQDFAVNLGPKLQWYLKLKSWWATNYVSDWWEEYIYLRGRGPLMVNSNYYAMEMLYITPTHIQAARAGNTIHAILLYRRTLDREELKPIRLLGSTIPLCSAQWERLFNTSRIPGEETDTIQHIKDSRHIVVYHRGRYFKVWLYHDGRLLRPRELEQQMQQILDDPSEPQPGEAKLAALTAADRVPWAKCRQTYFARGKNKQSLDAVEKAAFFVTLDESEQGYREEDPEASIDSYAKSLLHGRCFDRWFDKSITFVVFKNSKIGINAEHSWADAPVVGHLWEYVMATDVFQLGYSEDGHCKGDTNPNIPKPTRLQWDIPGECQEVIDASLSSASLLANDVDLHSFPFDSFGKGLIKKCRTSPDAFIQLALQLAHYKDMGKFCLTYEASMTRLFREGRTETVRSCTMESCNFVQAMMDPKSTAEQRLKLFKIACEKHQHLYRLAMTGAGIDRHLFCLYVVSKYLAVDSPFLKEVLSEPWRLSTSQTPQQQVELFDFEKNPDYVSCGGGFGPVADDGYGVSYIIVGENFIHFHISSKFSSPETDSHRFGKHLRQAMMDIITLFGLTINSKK
Excerpt: Decreasing Hypothalamic Lipid Oxidation Inhibits Endogenous Glucose Production (GP) via stimulation of K-channels (KATP) and Vagus Nerve. Administration either of the long-chain fatty acid (LCFA) oleic acid (OA) or of inhibitors of CPT-1 activity (CPT1) in the third cerebral ventricle (ICV) inhibits GP. Here, we hypothesize that inhibition of hypothalamic lipid oxidation with CPTi decreases GP via central activation of ATP-dependent potassium channels (KATP) leading to increased vagal input to the liver. […] All rats also received an IV infusion of [3-^3H]-glucose for the last 4 hr of ICV infusion and pancreatic/insulin clamp (insulin 1 mU/kg/min; somatostatin […]) during the last 2 hr of each study. In the presence of basal insulin levels, glucose infusion (GIR) was required to prevent hypoglycemia in the CPTi (4.9±1.0 mg/kg/min), but not in the CON (2.1±0.4 mg/kg/min) and CPTi-GLY (1.4±0.5 mg/kg/min) groups. […] To investigate whether this neural pathway acts via the hepatic branch of the vagus nerve, ICV CPTi or CON infusions were also performed in rats receiving liver-selective vagotomy (LV) or sham-operation (SH). GIR was markedly higher in CPTi-SH (4.7±1.3 mg/kg/min) compared with both CON-SH (1.3±0.4 mg/kg/min) and CPTi-LV (0.8±0.5 mg/kg/min). […]

hypothalamic CPT1 [2] = target: T1, hypothalamic CPT1; assay: ICV infusion with pancreatic-insulin clamp, glucose kinetics (Example 1); type: in vivo; set-up: CPT1 activity was measured in the particulate fraction of protein extracts from animals treated with ICV control injections; from tissue; host or cells: hypothalamus (arcuate nucleus) of male Sprague-Dawley rats, in vivo or ex vivo; Insulin (iU/ml): unit not given here; conditions: for Food Intake: measured prior to acute ICV infusion, except CPT1L-Ribo group (3 days after ICV)
Protocol: Hypothalamic inhibition of CPT1 inhibits glucose production. Experiments were also designed to examine the effect of central inhibition of CPT-1 on whole body insulin action (FIG. 4a,b). Insulin action was assessed by a combination of ICV infusions with systemic pancreatic-insulin clamp studies (FIG. 4b). In these studies, the daily food intake was matched in the rats receiving ICV vector and ICV CPT1L-Ribo (Table 1). All rats also received an intra-arterial infusion of [3-^3H]-glucose for the last 4 hr of ICV infusion and a pancreatic/insulin clamp (insulin 1 mU/kg.min; somatostatin 3 μg/kg/min) during the last 2 hr of the study (Obici et al., 2002a; Obici et al., 2001). As expected in the presence of ˜basal circulating insulin levels (clamp procedure; Table 1), the rate of glucose infusion (GIR) required to maintain euglycemia was marginal in ICV control studies (vector-ST1340- or vehicle-infused animals; ˜0.8 mg/kg/min). By contrast, following ICV infusion of inhibitors of CPT-1 expression or activity glucose had to be infused at the rate of ˜5 mg/kg/min in order to prevent hypoglycemia. Thus, central inhibition of CPT-1 activity in the presence of fixed and basal insulin concentrations stimulates insulin action on glucose homeostasis.
(§1) Animal preparation for in vivo experiments. We studied ninety-three 10-week old male Sprague-Dawley rats (Charles River Breeding Laboratories, Wilmington, Mass.). Rats were housed in individual cages and subjected to a standard light-dark cycle. Three weeks prior to the in vivo studies, we placed a chronic catheter in the third cerebral ventricle by stereotaxic surgery (Obici et al., 2002a; Obici et al., 2001; Liu et al., 1998). One week before the pancreatic-insulin clamp protocols, we placed additional catheters in the right internal jugular and left carotid artery (Obici et al., 2001; Liu et al., 1998). All ICV solutions were dissolved in artificial cerebral spinal fluid (aCSF). Food intake was monitored daily.
Measurements of in vivo glucose kinetics and pancreatic-insulin clamp procedure. The infusion studies lasted a total of 360 min (FIG. 3a). Briefly, at t=0 min a primed-continuous ICV infusion of either CPT1 inhibitors or control solution was initiated and maintained for the remainder of the study. 2-tetradecylglydate (TDGA, a gift from Dr. Manuel Guzman) was dissolved in DMSO, diluted into aCSF (Harvard Apparatus) and infused ICV at a rate of 50 pmoles/hr. […] Prior to the pancreatic-insulin clamp studies, rats receiving ICV injection of either CPT1L-Ribo or vector control three days prior to the clamp procedure were randomized into two pair-fed experimental groups. A primed-continuous infusion of HPLC-purified [3-^3H]-glucose (New England Nuclear, Boston, Mass.; 40 μCi bolus, 0.4 μCi/min) was started at t=120 min and continued for the duration of the study (Obici et al., 2002a; Obici et al., 2001; Liu et al., 1998). Finally, a pancreatic-insulin clamp (Obici et al., 2002a; Obici et al., 2001; Liu et al., 1998) was initiated at t=240 min and lasted for 2 hours. This procedure involved the infusion of somatostatin (3 μg/kg/min), insulin (1 mU/kg/min), and glucose as needed to prevent hypoglycemia, or antibodies against C peptide (Linco) and Melanocortin Receptor type 2 (Chemicon). The rate of insulin infusion was designed to replace normal basal levels in postabsorptive rats.
Radioactivity of [^3H]glucose in plasma was measured from supernatants of Ba(OH)2 and ZnSO4 precipitates after evaporation to dryness for the removal of tritiated water (Somogyi pellet). The specific activity of tritiated water in plasma (Somogyi filtrate) was determined from the total counts of the protein-free supernatant before and after evaporation to dryness. Under steady state conditions for plasma glucose concentration, the rate of glucose disappearance (Rd) equals the rate of glucose appearance (Ra). […]

rats = conditions: ICV, equimolar to oleic acid; cited from earlier work
hypothalamic CPT1 [3] = target: T1, hypothalamic CPT1; assay: Food intake after ICV bolus of CPT1 antagonists; type: in vivo; set-up: CPT1 activity was measured in the particulate fraction of protein extracts from animals treated with ICV control injections; from tissue; host or cells: hypothalamus (arcuate nucleus) of male Sprague-Dawley rats, in vivo or ex vivo; conditions: single ICV injection
Protocol: Hypothalamic inhibition of CPT1 decreases food intake. First we examined whether central administration of molecular and pharmacological antagonists of CPT1 modulates feeding behavior in conscious rats (FIG. 3). […] Food intake was monitored in metabolic cages before and up to 72 h after the ICV injections (Obici et al., 2002a). […] The marked effect of ICV CPT1L-Ribo on food intake was significant when compared with either control vector or with an unrelated control ribozyme (FIG. 3c). […] The anorectic effect of central CPT1 inhibition lasted for at least 48 h following a single ICV administration. These decreases in food intake were significant compared with both baseline and vehicle/control (FIG. 3a-e). The changes from baseline induced by CPT1 inhibition were statistically significant at 24 h (−17.6±2.0 g and −12.4±3.9 g), and 48 h (−13.4±1.8 g and −7.8±3.8 g) following ICV administration of CP1L-Ribo and high dose ST 1326, respectively (FIGS. 3b and e). This represented a ˜50% decrease in daily food intake, which returned toward baseline values by 72 h.
as §1
Effect of central inhibition of CPT1 and food intake. We examined the effects of ICV CPT1L-Ribo and ST 1326 on food intake. Three-hours before the start of the dark cycle, CPT1L-Ribo or vector control, ST 1326 or ST 1340 was injected as a bolus via indwelling catheters implanted in the third cerebral ventricle. In the feeding studies, rats received a single bolus injection of 25 pmoles of ST1340 or two different doses (5 and 25 pmoles) of ST1326. Rats were adapted to the metabolic cages and their daily food intake had been constant (changes <10%) for a minimum of three consecutive days preceding the ICV injections. Food intake was continuously monitored for the following 72 h.

COc1ccc(Cl)cc1C(=O)NCCc1ccc(S(=O)(=O)NC(=O)NC2CCCCC2)cc1 [GLY, glybenclamide]
GP during the clamp period (KATP): ~6 mg/kg.min | GP (hypothalamic CPT1 [1]): did not alter

CCCCCCCCCCCCCCC1(C(=O)O)CO1 (stereo not shown) [TDGA, 2-tetradecylglydate]
Body wt. (hypothalamic CPT1 [2]; Basal): 319 ± 10 g | FFA (hypothalamic CPT1 [2]; Basal): 0.5 ± 0.1 mM | Glucose (hypothalamic CPT1 [2]; Basal): 8.2 ± 0.8 mM | Insulin (hypothalamic CPT1 [2]; Basal): 1.9 ± 0.1 ng/mL | Leptin (hypothalamic CPT1 [2]; Basal): 1.7 ± 0.1 ng/mL | Food Intake (hypothalamic CPT1 [2]; Basal): 25 ± 2 g | FFA (hypothalamic CPT1 [2]; Clamp, steady-state): 0.5 ± 0.1 mM | Glucose (hypothalamic CPT1 [2]; Clamp, steady-state): 8.1 ± 0.5 mM | Insulin (iU/ml) (hypothalamic CPT1 [2]; Clamp, steady-state): 25 ± 3 | decrease in glucose production (GP) (hypothalamic CPT1 [2]; basal and equal insulin levels (~20 μU/ml), ICV): 47±6% | glucose production (GP) during pancreatic clamp vs ICV vehicle controls (hypothalamic CPT1 [2]; ~basal insulin concentrations, p<0.01): markedly inhibited GP

CCCCCCCC(=O)O [octanoic acid]
suppressive effects of ICV oleic acid on food intake and on GP, with equimolar administration (rats): not replicated

CCCCCCCCCCCCCCNC(=O)N[C@@H](CC(=O)[O-])C[N+](C)(C)C [ST1340, (S)-N-(tetradecylcarbamoyl)-aminocarnitine]
effect on food intake / feeding behavior (hypothalamic CPT1 [3]): failed to modify feeding behavior | Body wt. (hypothalamic CPT1 [2]; Basal): 307 ± 6 g | FFA (hypothalamic CPT1 [2]; Basal): 0.4 ± 0.1 mM | Glucose (hypothalamic CPT1 [2]; Basal): 8.0 ± 1.0 mM | Insulin (hypothalamic CPT1 [2]; Basal): 1.4 ± 0.2 ng/mL | Leptin (hypothalamic CPT1 [2]; Basal): 0.9 ± 0.2 ng/mL | Food Intake (hypothalamic CPT1 [2]; Basal): 22 ± 3 g | FFA (hypothalamic CPT1 [2]; Clamp, steady-state): 0.4 ± 0.1 mM | Glucose (hypothalamic CPT1 [2]; Clamp, steady-state): 8.2 ± 0.9 mM | Insulin (iU/ml) (hypothalamic CPT1 [2]; Clamp, steady-state): 25 ± 4 | rate of glucose infusion (GIR) required to maintain euglycemia (hypothalamic CPT1 [2]; pancreatic-insulin clamp, ~basal insulin, ICV infusion): ~0.8 mg/kg/min
